Measurements from patent US12595504B2, “Methods for screening compounds for bactericidal activity and for determining the sensitivity of bacterial samples” (priority 2020, dated 2026).
Values after ≈ are worked out from the molar mass of the structure shown. Read-outs that look alike come from different tables or passages of the source.

What was measured:
Escherichia coli MG1655 = assay: Antibiotic MIC determination (serial twofold dilutions, OD600 during 17 hours at 37° C.); type: cell-based; conditions: 37° C.; for MIC: Escherichia coli
Procedure: The Minimal Inhibitory Concentration (MIC) of the antibiotics was determined under the same culture conditions as the tests using the ATP assay kit. […] An exponentially growing culture (OD600=0.3) was added to each well (60 μl/well) of a sterile microtiter plate containing the test concentration of antibiotic (40 μl/well). The volume was completed to 120 μl with medium and OD600 nm measurements were performed using a microtiter plate reader (Infinite 200 PRO, TECAN) during 17 hours at 37° C.
In all the following experiments, the MIC values were measured for each antibiotic with parameters such as temperature, OD600 and equipment identical to those used for the bioluminescence assay.

[1] = tested on: E. coli MG1655 reporter cells; type: cell-based, Escherichia coli
Procedure: The classical luciferase was from Molecular Probes (ATP Determination Kit (A22066)). The thermostable luciferase was from “CheckLite AT100” (kikkoman). The Luciferin-luciferase reagents were prepared following manufacturer instructions. Bacteria from exponentially growing cultures (OD600=0.3) were added to each well (60 μl/well) of a black 96-microtiter plate (Greiner Bio-one, 655076) and 20 μl of the luciferin-luciferase reagent solution was added. The microtiter plate was incubated 5 min at 37° C. for reaction with the luciferase to eliminate traces of extracellular ATP. Then 40 μl of antibiotic solution (3 times concentrated) prepared in the culture medium were added. Bioluminescence of each well was monitored for 4 hours under shaking (218 rpm) and at 28 or 37° C., depending on the experiments (see legends of Figures). The reagent stability in presence or absence of antibiotics was checked in control experiments without bacteria but with 4 pmoles of ATP. Tests were also performed in 384-microtiter plates (Greiner Bio-one, 784076).
Aminoglycosides are bactericidal antibiotics causing translational miscoding with lethal consequences for the cell. Leakage of small molecules following an aminoglycoside shock was previously identified by different methods including radiolabelling. Therefore, the inventors investigated the response of live cells to aminoglycoside stress.

thermostable luciferase = molecular target: T1, thermostable luciferase (Nipponoluciola cruciata, UniProt P13129, A536K/G484A/G534A/I532L/M501V/N494T/N510T/P452A/P477D/R513K/R519V/S465N/S491H/S509T/T217I/T219I/V239I/V459I/V474L/V478D/V500I); type: biochemical
T1 construct: purchased Kikkoman CheckLite AT100
Procedure: FIG. 5. […] The luciferase-luciferin reagent was preincubated 40 min at 37° C. in presence of various antibiotics in LB before the addition of 30 nM ATP (in the absence of bacteria).
The classical luciferase was from Molecular Probes (ATP Determination Kit (A22066)). The thermostable luciferase was from “CheckLite AT100” (kikkoman). The Luciferin-luciferase reagents were prepared following manufacturer instructions. Bacteria from exponentially growing cultures (OD600=0.3) were added to each well (60 μl/well) of a black 96-microtiter plate (Greiner Bio-one, 655076) and 20 μl of the luciferin-luciferase reagent solution was added. The microtiter plate was incubated 5 min at 37° C. for reaction with the luciferase to eliminate traces of extracellular ATP. Then 40 μl of antibiotic solution (3 times concentrated) prepared in the culture medium were added. Bioluminescence of each well was monitored for 4 hours under shaking (218 rpm) and at 28 or 37° C., depending on the experiments (see legends of Figures). The reagent stability in presence or absence of antibiotics was checked in control experiments without bacteria but with 4 pmoles of ATP. […]
Bioluminescence was thus measured after preincubation of luciferase-lucifering reagent with the antibiotics at their maximal concentration used in this study in LB before the addition of 30 nM ATP (in the absence of bacteria).

[2] = Comparative stability assay of classical and thermostable luciferase at 37° C.; type: physicochemical
Procedure: For performing this assay, a classical luciferase (firefly luciferase; Molecular Probes ATP determination kit A22066) and the thermostable luciferase (Checklite kit, Kikkoman, AAE43251.1) were used according to the manufacturer's instructions. Both types of luciferases were added to rich LB or minimal MOPS-Glucose media pre-heated at 37° C. At various times during incubation, aliquots of the solutions were collected, supplemented with reagents and mixed with 0.8 pmole of ATP for bioluminescence readings. Immediately after mixing, bioluminescence measurements were performed at 37° C. using an InfinitePro200, TECAN plate reader in a total volume of 12 μL on a 384-wells microtiter plate (Greiner Bio-one, 784076).

[3] = MG1655, read-out: MIC in MOPS glucose 0.4%, MOPS minimal medium glucose 0.4%
[4] = MG1655, LB medium, OD600 0.15 final, read-out: MIC in LB
[5] = antibiotic at 6.25 μg/mL, LB, 37° C.
[6] = antibiotic at 12.5 μg/mL, LB, 37° C.
[7] = antibiotic at 25 μg/mL, LB, 37° C.
[8] = antibiotic at 50 μg/mL, LB, 37° C.
[9] = antibiotic at 100 μg/mL, LB, 37° C.
[10] = antibiotic at 200 μg/mL, LB, 37° C.
[11] = MOPS minimal medium glucose 0.4%
[12] = antibiotic at 400 μg/mL, LB, 37° C.
[13] = MOPS minimal medium (glucose 0.4%), FIG. 11

T1 sequence (P13129 other isoform, or with tags, fused parts or gaps with the stated changes): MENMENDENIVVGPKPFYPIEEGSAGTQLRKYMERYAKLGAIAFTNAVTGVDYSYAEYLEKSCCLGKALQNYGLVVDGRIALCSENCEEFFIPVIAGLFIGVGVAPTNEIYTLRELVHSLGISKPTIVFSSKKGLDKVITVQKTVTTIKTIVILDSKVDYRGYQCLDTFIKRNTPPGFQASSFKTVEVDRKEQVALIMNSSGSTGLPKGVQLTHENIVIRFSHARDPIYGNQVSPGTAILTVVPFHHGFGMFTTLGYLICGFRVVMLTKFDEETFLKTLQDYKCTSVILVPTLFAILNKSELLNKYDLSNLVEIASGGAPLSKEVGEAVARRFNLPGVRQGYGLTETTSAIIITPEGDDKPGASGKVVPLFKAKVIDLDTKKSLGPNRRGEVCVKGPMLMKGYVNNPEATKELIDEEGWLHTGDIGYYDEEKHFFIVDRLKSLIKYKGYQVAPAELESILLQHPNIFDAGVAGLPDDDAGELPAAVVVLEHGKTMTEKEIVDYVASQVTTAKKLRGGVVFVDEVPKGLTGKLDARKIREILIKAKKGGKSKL

| Molecule | MIC (Escherichia coli MG1655; [3]) [µg/mL] | MIC (Escherichia coli MG1655; [4]) [µg/mL] | MIC in LB (Escherichia coli MG1655; LB medium, OD600 0.15 final) [µg/mL] | Lag time before ATP [1, 6] [min] | Lag time before ATP [1, 7] [min] | Lag time before ATP [1, 8] [min] | Lag time before ATP [1, 9] [min] | MIC in MOPS glucose 0.4% (Escherichia coli MG1655; [11]) [µg/mL] | other results |
| --- | --- | --- | --- | --- | --- | --- | --- | --- | --- |
| COc1ccc(C[C@H](N)C(=O)N[C@H]2[C@@H](O)[C@H](n3cnc4c(N(C)C)ncnc43)O[C@@H]2CO)cc1 [Puromycin] | 871 (≈ 1850 µM) | 435 (≈ 923 µM) | 377 (≈ 800 µM) | – | – | – | – | – | ATP leakage ([1]; sub-MIC concentrations, LB, FIG. 9): very weak leakage; Effect on the activity of the bioluminescence assay (thermostable luciferase; preincubation with antibiotic in LB, 30 nM ATP, no bacteria, inhibition only at concentration above the MIC): significant inhibition of bioluminescence |
| CO[C@H]1/C=C/O[C@@]2(C)Oc3c(C)c(O)c4c(O)c(c(/C=N/N5CCN(C)CC5)c(O)c4c3C2=O)NC(=O)/C(C)=C\C=C\[C@H](C)[C@H](O)[C@@H](C)[C@@H](O)[C@@H](C)[C@H](OC(C)=O)[C@@H]1C [Rifampicin] | 25 (≈ 30.4 µM) | 50 (≈ 60.8 µM) | – | 57.1 | 38 | 34.8 | 34.6 | – | Lag of ATP leakage ([1]; LB, FIG. 9): about 30 minutes; Lag time before ATP ([1]; antibiotic at 3.125 μg/mL, LB, 37° C.): 67 min; Lag time before ATP [1, 5]: 63.8 min |
| CN[C@@H]1[C@H](O)[C@H](NC)[C@H]2O[C@@]3(O)C(=O)C[C@@H](C)O[C@H]3O[C@@H]2[C@H]1O [Spectinomycin] | 100 (≈ 301 µM) | 50 (≈ 150 µM) | – | – | – | – | – | – | Amplitude of ATP release ([1]; bacteriostatic antibiotics, LB, FIG. 9): very weak amplitude |
| [H]/N=C(/N)N[C@H]1[C@H](O)[C@@H](O)[C@H](O[C@@H]2O[C@@H](C)[C@](O)(C=O)[C@H]2O[C@@H]2O[C@@H](CO)[C@H](O)[C@@H](O)[C@@H]2NC)[C@@H](N/C(N)=N\[H])[C@@H]1O [Streptomycin] | 6.25 (≈ 10.7 µM) | 50 (≈ 86 µM) | – | 39 | 21 | 16 | 12 | – | Shape of ATP release trace ([1]; LB medium, 37° C., FIG. 8): bi-phasic; Lag time before ATP [1, 10]: 10 min; Lag before ATP release (shortest, incompressible value) ([1]; highest concentrations tested, LB, 37° C.): ~10 min |
| CN(C)[C@@H]1C(O)=C(C(N)=O)C(=O)[C@@]2(O)C(O)=C3C(=O)c4c(O)cccc4[C@@](C)(O)[C@H]3C[C@@H]12 [Tetracycline] | 12.5 (≈ 28.1 µM) | 12.5 (≈ 28.1 µM) | – | – | – | – | – | – | High dose at which ATP release was observed ([1]; LB, FIG. 9): 4 times the MIC |
| COc1cc(Cc2cnc(N)nc2N)cc(OC)c1OC [Trimethoprim] | 6.25 (≈ 21.5 µM) | 50 (≈ 172 µM) | – | – | – | – | – | – | Concentration above which the drug inhibits the luciferase reaction (thermostable luciferase): above 200 μg/mL |
| Cc1c(N)nc([C@H](CC(N)=O)NC[C@H](N)C(N)=O)nc1C(=O)N[C@H](C(=O)N[C@H](C)[C@@H](O)[C@H](C)C(=O)N[C@H](C(=O)NCCC1=N[C@@H](c2nc(C(=O)NCCCCN=C(N)N)cs2)CS1)[C@@H](C)O)[C@@H](O[C@@H]1O[C@@H](CO)[C@@H](O)[C@H](O)[C@@H]1O[C@H]1O[C@H](CO)[C@@H](O)[C@H](OC(N)=O)[C@@H]1O)c1cnc[nH]1 [Zeocin] | – | – | 200 (≈ 140 µM) | 112.2 | 113.1 | 97.5 | 85.7 | 200 (≈ 140 µM) | Lag time before ATP [1, 10]: 68.6 min; Lag time before ATP [1, 12]: 57.8 min; Lag time before ATP ([1]; antibiotic at 800 μg/mL, LB, 37° C.): 51.9 min |
| Bleomycin | – | – | 100 | – | 164.0 | 142.0 | 98.0 | 200 | Lag time before ATP [1, 10]: 78.0 min; Lag time before ATP [1, 12]: 71.5 min |
| Gentamicin | – | – | 5.7 | 12.9 | – | – | – | 0.6 | Shape of ATP release trace ([1]; LB medium, 37° C., FIG. 8): bi-phasic; Shape of ATP release trace [1, 13]: monophasic; Lag time before ATP ([1]; antibiotic at 0.19 μg/mL, LB, 37° C.): 136.1 min; Lag time before ATP ([1]; antibiotic at 0.39 μg/mL, LB, 37° C.): 136.3 min; Lag time before ATP ([1]; antibiotic at 0.78 μg/mL, LB, 37° C.): 67.1 min; Lag time before ATP ([1]; antibiotic at 1.56 μg/mL, LB, 37° C.): 54.0 min; Lag time before ATP ([1]; antibiotic at 3.12 μg/mL, LB, 37° C.): 30.2 min; Lag time before ATP [1, 5]: 16.2 min |
| Polymyxin B | – | – | 8 | – | – | – | – | 4 | Shape of ATP release trace ([1]; LB medium, 37° C., FIG. 8): bi-phasic; Dose at which the amplitude of the initial burst was maximal ([1]; LB, FIG. 8): 4 µg/mL; Shape of ATP release trace [1, 13]: monophasic; Intensity of ATP release signal in minimal medium compared to rich medium (factor of decrease) ([1]; MOPS minimal medium vs LB): 3; Lag before ATP release ([1]; above the concentration of 4 μg/ml, LB): < 2.4 min; Lag time before ATP ([1]; antibiotic at 2 μg/mL, LB, 37° C.): 5.3 min; Lag time before ATP ([1]; antibiotic at 4 μg/mL, LB, 37° C.): 2.4 min; Lag time before ATP ([1]; antibiotic at 8 μg/mL, LB, 37° C.): < 2.4 min; Lag time before ATP ([1]; antibiotic at 16 μg/mL, LB, 37° C.): < 2.4 min; Lag time before ATP ([1]; antibiotic at 32 μg/mL, LB, 37° C.): < 2.4 min |
| classical firefly luciferase: firefly luciferase; Molecular Probes ATP determination kit A22066, not thermostable | – | – | – | – | – | – | – | – | Loss of activity ([2]; LB medium, after 12 minutes of incubation): 70%; Loss of activity ([2]; minimal MOPS-G medium, in 30 minutes): more than 80% |
